Values of other authors in patent publication US20050142195A1, “Stable pharmaceutical compositions without a stabilizer” (priority 2002, published 2005).
Like-named read-outs stand apart in the source and are kept apart here.

stability in mixture with lubricant (in the presence of magnesium stearate or stearic acid): poor | stability in mixture with lubricant (in the presence of talc): stable
Compound: CC(NC(C)(C)C)C(=O)c1cccc(Cl)c1.Cl (racemic) [bupropion, (±)-1-(3-chlorophenyl)-2-[(1,1-dimethylethyl)amino]-1-propanone hydrochloride]
